Test results published in patent US20230219251A1, “MULTIFUNCTIONAL WOOD PRESERVATIVE COMPOSITION AND WOOD PRESERVATION TREATMENT METHOD USING THE SAME” (KOREA INSTITUTE OF SCIENCE AND TECHNOLOGY, priority 2022, published 2023).

What was measured:
[1] = pH of the prepared solutions; type: physicochemical
Description: (§1) Specifically, 150 g of BA was added, and HH was added at ratios shown in Table 1 after addition of water (distilled water), followed by reaction at a temperature of each reaction solution of 60° C. The termination time point of the reaction was when the solution became a transparent solution. The degree of precipitation was analyzed one day after the completion of the reaction.
Hydrazine borates (#7 to #11) with different BAE levels were synthesized by varying the amounts of BA and HH. Specifically, BA was added at proportions shown in Table 3 below, and water was added and HH was added, followed by reaction at a temperature of each reaction solution of 60° C. Then, the termination time point of the reaction was when the solution became a transparent solution. The degree of precipitation was analyzed one month after the completion of the reaction.

[2] = Test on dilution stability
Description: The precipitation or lack thereof over time was visually observed while the tube was shaken every 6 hours, and the results are shown in Table 14.

Coptotermes formosanus = settings: cited from earlier work
Reticulitermes speratus = settings: cited from earlier work
rot fungi = settings: cited from earlier work
wood-boring insects = settings: cited from earlier work
[3] = cited from earlier work
[4] = 30 wt % BAE; one day after completion of the reaction
Description: Hydrazine borates (#1 to #6) were synthesized by varying the amounts of boric acid (BA) and hydrazine hydrate (HH) while fixing the boric acid equivalent (BAE) level to 30 wt %.
as §1

[5] = reaction solutions of Example 2, 40-71 wt % BAE
[6] = reaction solutions of Example 1, 30 wt % BAE

**Q.** For hydrazine borate [#7], which pH [1, 5] is on record?
**A.** 8.45

**Q.** For hydrazine borate [#9], which pH [1, 5] is on record?
**A.** 8.41

**Q.** Which pH [1, 6] does the source give for hydrazine borate [#3] here?
**A.** 7.45

**Q.** For hydrazine borate [#6], which pH [1, 6] is on record?
**A.** 6.59

**Q.** What does the source list for hydrazine borate [#8]?
**A.** pH [1, 5]: 8.42; Precipitation over time ([2]; diluted 1:1 in distilled water, 1 Days): N; Precipitation over time ([2]; diluted 1:1 in distilled water, 3 Days): N; Precipitation over time ([2]; diluted 1:1 in distilled water, 5 Days): N; Precipitation over time ([2]; diluted 1:1 in distilled water, 7 Days): N; Precipitation over time ([2]; diluted 2:1 in distilled water, 1 Days): N; Precipitation over time ([2]; diluted 2:1 in distilled water, 3 Days): N; Precipitation over time ([2]; diluted 2:1 in distilled water, 5 Days): N; Precipitation over time ([2]; diluted 2:1 in distilled water, 7 Days): N; Precipitation over time ([2]; diluted 3:1 in distilled water, 1 Days): N; Precipitation over time ([2]; diluted 3:1 in distilled water, 3 Days): N; Precipitation over time ([2]; diluted 3:1 in distilled water, 5 Days): N; Precipitation over time ([2]; diluted 3:1 in distilled water, 7 Days): N

**Q.** Which Toxicity titer (Coptotermes formosanus) does the source give for borate here?
**A.** 3.0 kg/m^3 BAE

**Q.** And the Toxicity titer (Reticulitermes speratus)?
**A.** < 3.0 kg/m^3 BAE

**Q.** What about the Toxicity titer (rot fungi) of the same compound?
**A.** 1.0-1.5 kg/m^3 BAE

**Q.** And the Toxicity titer (wood-boring insects)?
**A.** 1.2 kg/m^3 BAE

**Q.** With “dilithium octaborate [dilithium octaborate (LOB)]” as the compound, how does the “BAE at room temperature” value [3] read?
**A.** 24.1 % BAE

**Q.** For `O.O.O.O.O=BOB1OB(OB=O)OB2OB([O-])OB([O-])OB(O1)O2.[Na+].[Na+]` [disodium octaborate tetrahydrate (DOT), disodium octaborate tetrahydrate], which “BAE at room temperature” value [3] is on record?
**A.** 11.6 % BAE

**Q.** With hydrazine borate [#4] as the compound, how does the pH [1, 6] read?
**A.** 6.13

**Q.** With hydrazine borate [#1] as the compound, how does the “Appearance of the solution / precipitate formation” value [4] read?
**A.** transparent solutions

**Q.** What about the pH [1, 6] of the same compound?
**A.** 9.50

**Q.** With hydrazine borate [#5] as the compound, how does the pH [1, 6] read?
**A.** 6.33

**Q.** Which “BAE at room temperature” value [3] does the source give for `N.O=BOB1OB2OB(O)OB(O1)O2` [ammonium pentaborate (APB), ammonium pentaborate] here?
**A.** 10.6 % BAE

**Q.** With hydrazine borate [#2] as the compound, how does the “Appearance of the solution / precipitate formation” value [4] read?
**A.** transparent solutions

**Q.** What about the pH [1, 6] of the same compound?
**A.** 8.42

**Q.** With hydrazine borate [#10] as the compound, how does the pH [1, 5] read?
**A.** 8.40

**Q.** Which pH [1, 5] does the source give for hydrazine borate [#11] here?
**A.** 8.37
